This is an account of results in PMC12901071 (Scientific Reports, 2026).

The assay addresses T1, human membrane progestin receptor α (hmPRα) (Homo sapiens, UniProt Q86WK9).
T1 sequence (Q86WK9 1-346): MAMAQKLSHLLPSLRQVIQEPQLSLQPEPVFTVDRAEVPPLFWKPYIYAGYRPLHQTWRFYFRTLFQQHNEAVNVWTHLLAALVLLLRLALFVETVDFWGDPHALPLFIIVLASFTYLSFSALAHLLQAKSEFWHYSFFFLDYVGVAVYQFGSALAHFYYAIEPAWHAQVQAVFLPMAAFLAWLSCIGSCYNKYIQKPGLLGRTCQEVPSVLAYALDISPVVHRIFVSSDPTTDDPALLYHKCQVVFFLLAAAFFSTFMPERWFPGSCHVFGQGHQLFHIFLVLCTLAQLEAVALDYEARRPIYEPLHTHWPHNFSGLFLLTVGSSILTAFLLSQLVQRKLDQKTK
In words: GQD-hmPRα fluorescence competition with P4-BSA-FITC. Format: binding.

pIC50: −log10 of the molar value.

Usually pIC50 stands for the negative decadic logarithm of the IC50, by convention in mol/L. Consider `CCCC(O)C(=O)OC(CCC)C(=O)O` (centres unmarked) [1-CB 2-HPNA, 1-carboxybutyl 2-hydroxypentanoate], for which the negative logarithm of the IC50 (pIC50) is 5.90.

The compound `CC(=O)[C@H]1CC[C@H]2[C@@H]3CCC4=CC(=O)CC[C@]4(C)[C@H]3CC[C@]12C` [progesterone] showed a pIC50 of 5.72.
